According to article PMC11836358 (Nature Communications, 2025):
Like-named read-outs stand apart in the source and are kept apart here.

How the values were obtained:
BmrA [1] = target: T1, BmrA (Bacillus subtilis, UniProt O06967, E504A); test: biochemical
BmrA [2] = target: T1, BmrA; test: biochemical; remark: listed apart in the source
[3] = target: the molecule itself; test: cryo-EM structure; purified BmrA E504A at 25 µM in 20 mM HEPES-NaOH pH 7.5, 100 mM NaCl, DDM/sodium cholate; 0, 25, 70, 100 µM or 5 mM ATP-Mg2+, with or without 100 µM R6G, or with Hœchst33342; inward-facing and outward-facing dimers reconstructed

Molecule: COc1cccc2c1C(=O)c1c(O)c3c(c(O)c1C2=O)C[C@@](O)(C(=O)CO)C[C@@H]3O[C@H]1C[C@H](N)[C@H](O)[C@H](C)O1 [Doxorubicin]
- Kd (BmrA [1]): 7.3 ± 2.2 µM

Molecule: Nc1ncnc2c1ncn2[C@@H]1O[C@H](COP(=O)(O)OP(=O)(O)OP(=O)(O)O)[C@@H](O)[C@H]1O [ATP]
- Kd (BmrA [2]): 154 ± 49 µM

Molecule: CCOc1ccc(-c2nc3cc(-c4nc5cc(N6CCN(C)CC6)ccc5[nH]4)ccc3[nH]2)cc1 [Hœchst33342]
- Kd (BmrA [1]): 9.6 ± 1.3 µM

B1: BmrA E504A mutant (Bacillus subtilis multidrug ABC transporter) (natural protein)
chain: MPTKKQKSKSKLKPFFALVRRTNPSYGKLAFALALSVVTTLVSLLIPLLTKQLVDGFSMSNLSGTQIGLIALVFFVQAGLSAYATYALNYNGQKIISGLRELLWKKLIKLPVSYFDTNASGETVSRVTNDTMVVKELITTHISGFITGIISVIGSLTILFIMNWKLTLLVLVVVPLAALILVPIGRKMFSISRETQDETARFTGLLNQILPEIRLVKASNAEDVEYGRGKMGISSLFKLGVREAKVQSLVGPLISLVLMAALVAVIGYGGMQVSSGELTAGALVAFILYLFQIIMPMGQITTFFTQLQKSIGATERMIEILAEEEEDTVTGKQIENAHLPIQLDRVSFGYKPDQLILKEVSAVIEAGKVTAIVGPSGGGKTTLFKLLERFYSPTAGTIRLGDEPVDTYSLESWREHIGYVSQESPLMSGTIRENICYGLERDVTDAEIEKAAEMAYALNFIKELPNQFDTEVGERGIMLSGGQRQRIAIARALLRNPSILMLDAATSSLDSQSEKSVQQALEVLMEGRTTIVIAHRLSTVVDADQLLFVEKGEITGRGTHHELMASHGLYRDFAEQQLKMNADLENKAG
notes: BmrA, efflux pump of Bacillus subtilis, type-IV MDR ABC transporter; each monomer has 1 TMD and 1 NBD; Homodimer; the plasmid pET15b encodes the mutant fused to a 6-histidine tag at the N-terminal; also called E504A^apo; E504A^R6G; source: E. coli C43(DE3)∆AcrB, pET15b; membranes solubilised in Triton X100, purified (two Ni-NTA steps, Superdex 200) in DDM/sodium cholate
- binding result [3]: binds
